How the values were obtained:
Format in all cases: cell-based
[1] = system: LHRHR knock-down (KD) Panc-1 spheroides; assay: 3D spheroid growth, LHRHR knock-down (KD) Panc-1; details: LHRHR KD Panc-1; 30 μM
[2] = system: XIAP, cIAP1 and cIAP2 mRNA in Panc-1 cells; assay: Quantitative PCR of inhibitors of apoptosis, Panc-1; details: 50 uM, 24 h post-treatment, relative to DMSO, GAPDH reference
Procedure: mRNA levels of XIAP, c-IAP1 and c-IAP2 were determined by quantitative real-time PCR using the SYBR Green Real-Time PCR Master Mix form ThermoFisher. Thermal cycling was carried out using the CFX system from BioRad under the following conditions: 95° C. for 10 min and 40 cycles at 95° C. for 15 s and 55° C. for 60 s. mRNA expression for any given gene is represented as comparative to the DMSO-treated cells. GAPDH was used as the housekeeping gene of reference.
GAPDH was used as a reference. Results presented in FIG. 12A (XIAP relative mRNA levels), FIG. 12B (cIAP1 relative mRNA levels), FIG. 12C (cIAP2 relative mRNA levels).

PDAC PDXs tissue slices = assay: Live Tissue Sensitivity Assay (LTSA), panel of PDAC PDXs; details: 16 PDAC PDXs tested; single agent
Procedure: Animal experiment protocol was reviewed and approved by The University of Texas MD Anderson Cancer Center (Houston, Tex.) institutional review board and in accordance with the Guidelines for the Care and Use of Laboratory Animals published by the National Institutes of Health. PDXs were grown from cryopreserved early passages of PDXs in nude mice as described in previous publications (Kim M P, et al, Nat Protoc 2009; 4(11): 1670-80). Briefly, tumor samples stored in CryoStor™ CS10 storage medium were recovered and cut into about 2 mm3 fragments, soaked in Matrigel, and implanted into the subcutaneous space of Balb/c nude mice (5 mice/PDX). Tumors were harvested when they reach 1.5 cm in diameter for generating tissue slices for drug testing with quadruplicates.
About 100 tissue slices were produced from 1 tumorgraft with tissue slicer and arrayed in 96-well plates with previously established method (Roife D, et al, Clin Cancer Res 2016). […] Same volume of medium with 0.1% DMSO was added into control wells. After 72 hours, tissue viabilities were measured with PrestoBlue method. Viability inhibition will be calculated through normalization of viabilities of tissue slices treated with inhibitor against the viability of control (DMSO treated) slices. Inhibition of viability was further analyzed with t-test. […]

`COc1cc(/C=C/C(=O)CC(=O)/C=C/c2ccc(OC(=O)CCCC(=O)NCCCC[C@@H](NC(=O)[C@H](Cc3ccc(O)cc3)NC(=O)[C@H](CO)NC(=O)[C@H](Cc3c[nH]c4ccccc34)NC(=O)[C@H](Cc3c[nH]cn3)NC(=O)[C@@H]3CCC(=O)N3)C(=O)N[C@@H](CC(C)C)C(=O)N[C@@H](CCCNC(=N)N)C(=O)N3CCC[C@H]3C(=O)NCC(N)=O)c(OC)c2)ccc1O` [LHRH-curcumin, [DLys6]-LHRH-Curcumin] was tested, and the spheroids growth [1] was “still has an effect on spheroids growth formed by LHRHR KD cells, its effect was inferior to that of curcumin alone”, the “mRNA levels of XIAP, cIAP1 and c-IAP2” value [2] was “down-regulated” and the “number of PDXs sensitive” value (PDAC PDXs tissue slices) was 8.

— patent US10603335B2, “Cancer treatment combination compositions, methods and uses” (Board of Supervisors of Louisiana State University and …, priority 2016, dated 2020)
